ChEMBL document CHEMBL1153863, “Evaluation of the local anaesthetic activity of 3-aminobenzo[d]isothiazole derivatives using the rat sciatic nerve model” (2009)

Assays:
Format in all cases: functional
[1] = Local anaesthetic activity in rat sciatic nerve assessed as time required to decrease compound action potential to 50 %
[2] = Local anaesthetic activity in rat sciatic nerve assessed as time required to decrease compound action potential to 100 %
[3] = Local anaesthetic activity in rat sciatic nerve assessed as time required to decrease compound action potential to recover to 50 %
[4] = Local anaesthetic activity in rat sciatic nerve assessed as vitality time
[5] = Local anaesthetic activity in rat sciatic nerve assessed as time required to decrease compound action potential to 50 % relative to Lidocaine; set-up: scale not given: the % may be the effect or the level left
[6] = Local anaesthetic activity in rat sciatic nerve assessed as time required to decrease compound action potential to 100 % relative to Lidocaine; set-up: scale not given: the % may be the effect or the level left
[7] = Local anaesthetic activity in rat sciatic nerve assessed as time required to decrease compound action potential to 100 % at 1.5%
[8] = Local anaesthetic activity in rat sciatic nerve assessed as time required to decrease compound action potential to 50 % at 1.5%
[9] = Local anaesthetic activity in rat sciatic nerve assessed as time required to decrease compound action potential to recover to 50 % at 1.5%
[10] = Local anaesthetic activity in rat sciatic nerve assessed as vitality time at 1.5%
[11] = Local anaesthetic activity in rat sciatic nerve assessed as time required to decrease compound action potential to 50 % at 1.5% relative to Lidocaine; set-up: scale not given: the % may be the effect or the level left
[12] = Local anaesthetic activity in rat sciatic nerve assessed as time required to decrease compound action potential to 100 % at 1.5% relative to Lidocaine; set-up: scale not given: the % may be the effect or the level left

Compound | IT50 [1] | IT100 [2] | RT50 [3] | VT50 [4] | Activity [5] | Activity [6] | IT100 [7] | IT50 [8] | RT50 [9] | VT50 [10] | Activity [11] | Activity [12]
Cc1ccc2snc(NC(=O)C(C)N3CCOCC3)c2c1 (stereo not drawn) | 2.23 min | 20 min | 60 min | 738 min | 140.8% | 70% |  |  |  |  |  | 
CCN(CC)CC(=O)Nc1nsc2ccccc12 |  |  |  |  |  |  | 53.9 min | 12 min | 121.5 min | 600 min | 26.2% | 26%
Cc1ccc2snc(NC(=O)C(C)NC3CCCCC3)c2c1 (stereo not drawn) | 39 min | 42.5 min |  |  | 8.1% | 32.9% |  |  |  |  |  | 
CC(C(=O)Nc1nsc2ccccc12)N1CCCCC1 (stereo not drawn) | 8.9 min | 20.9 min | 58 min | 500 min | 21.7% | 73.7% |  |  |  |  |  | 
CCNCC(=O)Nc1nsc2ccccc12 | 5 min | 24.2 min | 76 min | 600 min | 62.8% | 57.9% | 49.9 min | 11.5 min | 135 min | 658 min | 27.3% | 28.1%
CC(C(=O)Nc1nsc2ccccc12)N(C)C (stereo not drawn) | 7.4 min | 14 min | 77 min | 690 min | 18.8% | 70% |  |  |  |  |  | 
CCNC(C)C(=O)Nc1nsc2ccc(C)cc12 (stereo not drawn) | 4.2 min | 12.9 min | 100 min | 702 min | 74.8% | 108.5% |  |  |  |  |  | 
CNCC(=O)Nc1nsc2ccccc12 | 10 min | 34 min | 48 min | 786 min | 31.4% | 41.2% |  |  |  |  |  | 
O=C(CN1CCC(c2ccccc2)CC1)Nc1nsc2ccccc12 | 18.5 min |  |  |  | 17% |  |  |  |  |  |  | 
CNC(C)C(=O)Nc1nsc2ccccc12 (stereo not drawn) | 12.8 min | 26.7 min | 68 min | 450 min | 24.5% | 121.7% |  |  |  |  |  | 
CCCNC(C)C(=O)Nc1nsc2ccccc12 (stereo not drawn) | 5.3 min | 24.1 min | 88.9 min | 750 min | 31.4% | 70% |  |  |  |  |  | 
CC(NC1CCCCC1)C(=O)Nc1nsc2ccccc12 (stereo not drawn) | 5.8 min | 25.3 min | 52.3 min |  | 44.9% | 63.6% |  |  |  |  |  | 
O=C(CN1CCOCC1)Nc1nsc2ccccc12 | 5.5 min | 10 min | 88 min | 511 min | 57.1% | 140% | 19 min | 8.1 min | 40 min | 666.7 min | 26.2% | 26%
CCN(CC)C(C)C(=O)Nc1nsc2ccccc12 (stereo not drawn) | 3.85 min | 14.1 min | 57.7 min | 404.2 min | 49.8% | 84.8% |  |  |  |  |  | 
CNC(C)C(=O)Nc1nsc2ccc(C)cc12 (stereo not drawn) | 6.6 min | 20 min | 60 min | 780 min | 47.6% | 70% |  |  |  |  |  | 
Cc1ccc2snc(NC(=O)C(C)N3CCCC3)c2c1 (stereo not drawn) | 1.75 min | 17.5 min | 122 min | 498 min | 179% | 80% |  |  |  |  |  | 
O=C(CCN1CCCC1)Nc1nsc2ccccc12 | 10 min | 20.4 min | 136.6 min | 870 min | 31.4% | 68.6% |  |  |  |  |  | 

Compound | IT50 [1] | IT100 [2] | RT50 [3] | VT50 [4] | Activity [5] | Activity [6] | IT100 [7] | IT50 [8] | RT50 [9] | VT50 [10] | Activity [11] | Activity [12]
CCNC(C)C(=O)Nc1nsc2ccccc12 (stereo not drawn) | 4.2 min | 12.9 min | 100 min | 861 min | 74.8% | 108.5% |  |  |  |  |  | 
CC(C(=O)Nc1nsc2ccccc12)N1CCOCC1 (stereo not drawn) | 11.8 min | 23 min | 126 min | 350 min | 26.6% | 60.9% |  |  |  |  |  | 
CN(C)CC(=O)Nc1nsc2ccccc12 | 10.5 min |  | 100 min | 250 min | 29.9% |  |  |  |  |  |  | 
CCCNCC(=O)Nc1nsc2ccccc12 | 10 min | 17.5 min | 200 min | 250 min | 31.4% | 80% |  |  |  |  |  | 
CCNCCC(=O)Nc1nsc2ccccc12 | 26.1 min | 79.5 min | 154.8 min | 400.8 min | 12% | 17.6% |  |  |  |  |  | 
CC(C)NCC(=O)Nc1nsc2ccccc12 | 12.13 min | 30.2 min | 150 min |  | 25.9% | 46.4% |  |  |  |  |  | 
O=C(CCN1CCOCC1)Nc1nsc2ccccc12 | 7 min | 17.9 min | 86 min |  | 44.9% | 78.2% |  |  |  |  |  | 
CNCCC(=O)Nc1nsc2ccccc12 | 10.75 min | 20.5 min | 136 min | 839 min | 29.2% | 68.3% |  |  |  |  |  | 
CC(C(=O)Nc1nsc2ccccc12)N1CCCC1 (stereo not drawn) | 7.7 min | 11.6 min | 135 min | 600 min | 40.8% | 120.7% |  |  |  |  |  | 
CCCNC(C)C(=O)Nc1nsc2ccc(C)cc12 (stereo not drawn) | 7.4 min | 14.8 min |  | 365 min | 23.6% | 65.1% |  |  |  |  |  | 
O=C(CN1CCCC1)Nc1nsc2ccccc12 | 5 min | 14 min | 105 min | 610 min | 62.8% | 100% | 28.3 min | 11.9 min | 101.5 min | 705.5 min | 26.4% | 49.5%
Cc1ccc2snc(NC(=O)C(C)N(C)C)c2c1 (stereo not drawn) | 11.6 min | 23.75 min | 162 min | 1012 min | 25.7% | 75.7% |  |  |  |  |  | 
Cc1ccc2snc(NC(=O)C(C)N3CCCCC3)c2c1 (stereo not drawn) | 11 min | 37 min |  |  | 28.5% | 37.8% |  |  |  |  |  | 
CC1CCN(CC(=O)Nc2nsc3ccccc23)CC1 | 25.5 min | 37.45 min | 122 min | 930 min | 12.3% | 37.4% |  |  |  |  |  | 
O=C(CN1CCCCC1)Nc1nsc2ccccc12 | 7 min | 16 min | 142.7 min | 500 min | 44.9% | 87.5% | 23.4 min | 8.05 min | 141.2 min | 555.8 min | 39% | 59.8%
CCN(CC)CC(=O)Nc1c(C)cccc1C [LIDOCAINE] | 3.14 min | 14 min | 48.75 min | 660 min | 100% | 100% |  |  |  |  |  | 
